Several values for one entry are separate records, joined by “and”; a condition that tells them apart may be missing. Equal entries are not always repeated.
Assays:
Type in all cases: in vivo, human
[1] = metabolite profiling in plasma (radioprofiling, LC‐MS)
Experimental: (§1) Total radioactivity concentrations of [^14C]‐pamiparib in whole blood, plasma, urine, and feces were determined by liquid scintillation counting (LSC). Radioactivity in each sample was measured for 5 minutes using a Packard Tri‐Carb liquid scintillation counter model 2100TR, 2900TR, or 3100TR (Canberra Packard, Pangbourne, Berks, Australia) with the facilities for computing quench‐corrected disintegrations per minute. Metabolite identification in plasma, urine, and feces was conducted by LC‐MS. Quantitation of the metabolites present in plasma, urine, and feces was based on the profiles of radioactivity. The limit of quantitation for radioactivity in plasma, urine, and feces was set at 1% of each chromatographic analysis (run) and 10 counts per minute (cpm) peak height; therefore, radioactive peaks that were <1% of the total run or <10 cpm peak height were reported as not detected. In addition, pamiparib and standards were reported, regardless of the percentage of run or peak height.
For metabolite profiling in plasma, ≈1.9 to 2.8 g of each plasma sample collected 0.5, 1, 2, 6, 12, and 24 hours postdose was extracted twice with 6 mL of 0.1% formic acid in acetonitrile (ACN). Duplicate aliquots were analyzed by LSC to determine extraction recoveries, which ranged from 77.4% to 98.5%. The combined supernatants were evaporated to dryness under nitrogen and reconstituted in 2:1 reverse osmosis water:methanol (MeOH). Duplicate aliquots were analyzed by LSC to determine reconstitution recoveries, which ranged from 89.3% to 115%. The reconstituted samples were analyzed by LC‐MS, with eluent fractions collected at 10‐second intervals into 96‐well plates containing solid scintillant. Radioactivity in each well was determined using TopCount analysis, and radiochemical profiles were generated based on radioactivity counts.
Metabolic profiling was performed on plasma, urine, and feces samples using LC‐MS. Shimadzu/Nexera LC‐30AD pumps and Shimadzu/Prominence DGU‐20A5R degasser were used with Shimadzu/Prominence controller CBM‐20A. The high‐pressure liquid chromatograph (HPLC) was equipped with an autoinjector (Shimadzu/Nexera SIL‐30ACMP) set at 10°C and a fraction collector (Leap Technologies PAL HTC‐xt) set at 15°C. Thermo Fisher Scientific Q Exactive was the mass spectrometer system.

[2] = mass balance: recovery of radioactivity in urine and feces
Description: (§2) Part 1 of the study included a screening phase of up to 28 days prior to drug administration to assess eligibility. Patients were admitted to the clinical research unit (CRU) at Royal Liverpool University Hospital (Liverpool, UK)/Clatterbridge Cancer Centre NHS Foundation Trust (Bebington, Wirral, UK) on day −1 and received a single dose of 60‐mg/100 μCi [^14C]‐pamiparib orally the morning of day 1. Patients remained in the CRU until completion of assessments on day 7, when discharge criteria of ≈90% of the radioactive dose being recovered or <1% of the radioactive dose being recovered in urine and feces for 2 consecutive 24‐hour collection intervals were met. If discharge criteria were not met by day 7, patients collected 24‐hour excreta samples up to day 14 on an outpatient basis. Part 2 of the study, evaluating the safety/tolerability and antitumor activity of 60 mg twice‐daily pamiparib in patients with advanced and/or metastatic solid tumors, is ongoing and is not included in this report.
as §1, with “In addition, pamiparib and standards were reported, regardless of the percentage of run or peak height.” left out
Each aliquot of urine (about 1 mL, weighed) was added directly to liquid scintillant prior to LSC. […] The radioactivity in each pooled sample was determined by LSC. […]

[3] = total radioactivity in plasma of patients (LSC)
Description: as §2
Patients fasted overnight and 2 hours after oral administration of a single 60‐mg dose containing ≈100 μCi (3.7‐3.9 MBq) of [^14C]‐pamiparib with ≈240 mL of room‐temperature water or juice (orange or grape). The residual radioactivity present in each vial postdose was corrected from the dose. The radioactive dose of 100 μCi of [^14C]‐pamiparib provided minimum risk to patients according to the dosimetry calculation from a quantitative whole‐body autoradiography study in male and female Long Evans rats; the dose also provided sufficient signal for total radioactivity counting and quantitative radioprofiling in blood, plasma, and excreta (data on file). […]
Total radioactivity was analyzed at Covance Laboratories (Harrogate, North Yorkshire, UK), and metabolite profiling was conducted at Covance Laboratories (Madison, Wisconsin). Determination of pamiparib concentrations in plasma and total radioactivity in plasma and whole blood was performed predose and 0.25, 0.5, 1, 1.5, 2, 2.5, 3, 6, 12, 24, 48, 72, 96, 120, and 144 hours postdose. Pamiparib concentrations in plasma and urine were determined at Covance Laboratories (Salt Lake City, Utah) with validated liquid chromatography‐tandem mass spectrometry (LC‐MS/MS) methods.
Total radioactivity concentrations of [^14C]‐pamiparib in whole blood, plasma, urine, and feces were determined by liquid scintillation counting (LSC). Radioactivity in each sample was measured for 5 minutes using a Packard Tri‐Carb liquid scintillation counter model 2100TR, 2900TR, or 3100TR (Canberra Packard, Pangbourne, Berks, Australia) with the facilities for computing quench‐corrected disintegrations per minute. […] Quantitation of the metabolites present in plasma, urine, and feces was based on the profiles of radioactivity. […]

SMILES: C[C@]12CCCN1CC1=NNC(=O)c3cc(F)cc4[nH]c2c1c34 [Pamiparib]
- AUC0‐t, geometric mean ([1]; based on high‐performance liquid chromatography‐liquid scintillation counting): 19670 ngEq·h/mL
- Cmax, geometric mean ([1]; based on high‐performance liquid chromatography‐liquid solid chromatography): 1737 ngEq/mL
- mean percent of total radioactivity exposure in plasma (AUC0‐24h) ([1]; plasma, mean of patients): 67.2% ± 10.2% and 67.2% and 67%
- Percent of Total Radioactivity Concentration (AUC0‐24h) ([1]; plasma, patient S101): 78.0%
- Percent of Total Radioactivity Concentration (AUC0‐24h) ([1]; plasma, patient S102): 72.6%
- Percent of Total Radioactivity Concentration (AUC0‐24h) ([1]; plasma, patient S103): 63.2%
- Percent of Total Radioactivity Concentration (AUC0‐24h) ([1]; plasma, patient S104): 55.0%
- administered radioactivity excreted in the feces ([2]; 192‐hour collection period): 26.9% ± 6.8%
- overall mean total recovery of radioactivity in urine and feces ([2]; 192‐hour collection period, mean ± SD, n = 4): 84.7% ± 3.5%
- mass balance achieved for all 4 subjects ([2]; individual subjects): higher than 80%
- geometric mean AUC0‐t of pamiparib (LC‐MS/MS) as percent of total radioactivity in plasma [3]: ~69.9%
- geometric mean AUC0‐∞ of pamiparib (LC‐MS/MS) as percent of total radioactivity in plasma [3]: ~69.4%
- geometric mean Cmax of pamiparib (LC‐MS/MS) as percent of total radioactivity in plasma [3]: ≈ 91.6%
- AUC0‐∞ ratio plasma pamiparib/total radioactivity, geometric mean (CV%) ([3]; n = 4): 0.694 (2.7)

Reference: PMC8453745, “Human Mass Balance and Metabolite Profiling of [^14C]‐Pamiparib, a Poly (ADP‐Ribose) Polymerase Inhibitor, in Patients With Advanced Cancer” (Clinical Pharmacology in Drug Development, 2021)
